Reference: PubChem BioAssay AID1745844 (Carcinogenic Potency Database (CPDB), 2022)
Calls of active or inactive are those of the source. The rule behind the calls is not given here.

Test system: rodent lifetime carcinogenesis bioassay, tumor incidence TD50
Experiment: carcinogenic potency in animals, long-term in vivo studies, CPDB compilation (AID 1745844)
Settings: inhaled

For CCC1CO1 (configuration not stated), the TD50 (mouse, strain B6C3F1, females, site: any site (literature study), lesion: several types, types named in the paper, dosed 102 weeks, study length 104 weeks) was 141 mg/kg/day (inactive), the TD50 (mouse, strain B6C3F1, females, site: liver, lesion: hepatocellular adenoma + hepatocellular carcinoma + neoplastic nodule, dosed 102 weeks, study length 104 weeks) was 445 mg/kg/day and the TD50 (mouse, strain B6C3F1, females, site: lung, lesion: alveolar/bronchiolar adenoma + alveolar/bronchiolar carcinoma, dosed 102 weeks, study length 104 weeks) was 834 mg/kg/day. The TD50 (mouse, strain B6C3F1, males, site: any site (literature study), lesion: several types, types named in the paper, dosed 102 weeks, study length 104 weeks) was 2470 mg/kg/day (inactive), the TD50 (mouse, strain B6C3F1, males, site: liver, lesion: hepatocellular adenoma + hepatocellular carcinoma + neoplastic nodule, dosed 102 weeks, study length 104 weeks) was 8600 mg/kg/day and the TD50 (rat, strain Fischer 344, females, site: any site (literature study), lesion: several types, types named in the paper, dosed 103 weeks, study length 105 weeks) was 78 mg/kg/day. The TD50 (rat, strain Fischer 344, females, site: nasal cavity, lesion: papillary adenoma, dosed 103 weeks, study length 105 weeks) was 1730 mg/kg/day, the TD50 (rat, strain Fischer 344, females, site: ovary, lesion: granulosa-cell carcinoma + granulosa-cell tumor + thecoma, dosed 103 weeks, study length 105 weeks) was 545 mg/kg/day and the TD50 (rat, strain Fischer 344, females, site: pituitary gland, anterior, lesion: adenoma, NOS, dosed 103 weeks, study length 105 weeks) was 83.8 mg/kg/day. The TD50 (rat, strain Fischer 344, females, site: thyroid gland, lesion: follicular-cell adenoma + follicular-cell carcinoma, dosed 103 weeks, study length 105 weeks) was 509 mg/kg/day, the TD50 (rat, strain Fischer 344, males, site: any site (literature study), lesion: several types, types named in the paper, dosed 103 weeks, study length 105 weeks) was 79.6 mg/kg/day and the TD50 (rat, strain Fischer 344, males, site: liver, lesion: hepatocellular adenoma + hepatocellular carcinoma + neoplastic nodule, dosed 103 weeks, study length 105 weeks) was 622 mg/kg/day. It also gave a TD50 (rat, strain Fischer 344, males, site: lung + nasal cavity, lesion: alveolar/bronchiolar adenoma + alveolar/bronchiolar carcinoma + papillary adenoma, dosed 103 weeks, study length 105 weeks) of 106 mg/kg/day, a TD50 (rat, strain Fischer 344, males, site: lung, lesion: alveolar/bronchiolar adenoma + alveolar/bronchiolar carcinoma, dosed 103 weeks, study length 105 weeks) of 220 mg/kg/day and a TD50 (rat, strain Fischer 344, males, site: lung, lesion: alveolar/bronchiolar carcinoma, dosed 103 weeks, study length 105 weeks) of 314 mg/kg/day. It also gave a TD50 (rat, strain Fischer 344, males, site: multiple organs + spleen, lesion: mononuclear-cell leukemia, dosed 103 weeks, study length 105 weeks) of 30.7 mg/kg/day and a TD50 (rat, strain Fischer 344, males, site: nasal cavity, lesion: papillary adenoma, dosed 103 weeks, study length 105 weeks) of 220 mg/kg/day.
